Data as given in the supplement of paper PMC10307832.

Tests used:
Experiment in all cases: relative viability (nuclei count vs DMSO), 5 days (fraction); higher = more cells survive
[1] = compound: Cc1ccccc1C(C(=O)NC1CCCCC1)N(C(=O)Cn1ccnc1C)c1cccc(F)c1 [IDH-C35] + Cc1nc(Nc2ncc(C(=O)Nc3c(C)cccc3Cl)s2)cc(N2CCN(CCO)CC2)n1 [Dasatinib] (partner 0.075 µM)
Procedure, shortened: (§1)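 Each reported value is a median over duplicate plates. It expresses relative viability: treated-well nuclei count divided by vehicle-well nuclei count. Lung cancer cell lines in 1536-well plates were dosed by pin tool a day after seeding, alone with one drug or with a fixed anchor-drug dose plus five library-drug doses (not always all listed) in √10 steps, and nuclei were counted after 5 days.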

[2] = compound: CC1=C(C(=NN1)C)CC2=C(C3=C(S2)N(C(=O)N(C3=O)C)CC(C)C)C(=O)N4C[C@@H](CO4)O + C[C@@H](Oc1cc(-c2cnn(C3CCNCC3)c2)cnc1N)c1c(Cl)ccc(F)c1Cl [Crizotinib] (partner 1 µM)
Procedure, shortened: as §1

[3] = compound: Cc1ccccc1C(C(=O)NC1CCCCC1)N(C(=O)Cn1ccnc1C)c1cccc(F)c1 [IDH-C35] + CC1(C)CCC(c2ccc(Cl)cc2)=C(CN2CCN(c3ccc(C(=O)NS(=O)(=O)c4ccc(N[C@H](CCN5CCOCC5)CSc5ccccc5)c(S(=O)(=O)C(F)(F)F)c4)cc3)CC2)C1 [Navitoclax] (partner 0.5 µM)
Procedure, shortened: as §1

[4] = compound: Cc1ccccc1C(C(=O)NC1CCCCC1)N(C(=O)Cn1ccnc1C)c1cccc(F)c1 [IDH-C35] + CCNC(=O)c1noc(-c2cc(C(C)C)c(O)cc2O)c1-c1ccc(CN2CCOCC2)cc1 [Luminespib] (partner 0.01 µM)
Procedure, shortened: as §1

| Cell Line | relative viability ([1]; first compound 0.08 µM) | relative viability ([1]; first compound 0.253 µM) | relative viability ([1]; first compound 0.8 µM) | relative viability ([1]; first compound 2.53 µM) | relative viability ([1]; first compound 8 µM) | relative viability ([2]; first compound 0.0025 µM) | relative viability ([2]; first compound 0.007906 µM) | relative viability ([2]; first compound 0.025 µM) | relative viability ([2]; first compound 0.07906 µM) | relative viability ([2]; first compound 0.25 µM) | relative viability ([3]; first compound 0.08 µM) | relative viability ([3]; first compound 0.253 µM) | relative viability ([3]; first compound 0.8 µM) | relative viability ([3]; first compound 2.53 µM) | relative viability ([3]; first compound 8 µM) | relative viability ([4]; first compound 0.08 µM) | relative viability ([4]; first compound 0.253 µM) | relative viability ([4]; first compound 0.8 µM) | relative viability ([4]; first compound 2.53 µM) | relative viability ([4]; first compound 8 µM) |
| --- | --- | --- | --- | --- | --- | --- | --- | --- | --- | --- | --- | --- | --- | --- | --- | --- | --- | --- | --- | --- |
| HCC-78 | 0.361 | 0.315 | 0.496 | 0.325 | 0.435 | 0.444 | 0.316 | 0.342 | 0.371 | 0.322 | 0.86 | 0.762 | 0.763 | 0.62 | 0.656 | – | – | – | – | – |
| HCC-366 | 0.763 | 0.67 | 0.669 | – | 0.596 | 0.661 | 1.13 | 0.622 | 0.641 | 0.825 | 0.937 | 1.13 | 1.03 | 0.981 | 1.01 | – | – | – | – | – |
| HCC-827 | 0.328 | 0.263 | 0.29 | 0.32 | 0.382 | 0.96 | 0.965 | 0.924 | 0.929 | 1 | 0.975 | 0.997 | 1.05 | 0.949 | 1.03 | 0.788 | 0.526 | 0.472 | 0.569 | 0.516 |
| HOP-62 | 0.712 | 0.624 | 0.6 | 0.638 | 0.622 | 0.807 | 1.11 | 1 | 0.819 | 1.12 | 1.07 | 0.939 | 0.84 | 0.974 | 0.891 | 0.944 | 0.849 | 0.822 | 0.923 | 0.927 |
| IA-LM | – | – | – | – | – | 0.924 | 0.743 | 0.838 | 0.885 | 1.03 | 0.711 | 0.838 | 0.798 | 0.742 | 0.707 | – | – | – | – | – |
| LC-2-ad | 0.596 | 0.65 | 0.568 | – | 0.593 | 0.486 | 0.451 | 0.411 | 0.454 | 0.638 | 0.544 | 0.589 | 0.467 | 0.427 | 0.331 | 1.05 | 1.04 | 0.962 | – | 0.939 |
| LCLC-97TM1 | 0.87 | 0.796 | 0.822 | 0.818 | 0.809 | 0.448 | 0.436 | 0.371 | 0.361 | 0.692 | 0.4 | 0.474 | 0.367 | – | 0.35 | 0.842 | 0.734 | 0.682 | 0.738 | 0.604 |
| LCLC-103H | 0.485 | 0.441 | 0.45 | 0.423 | 0.514 | 0.936 | 1.03 | 1.02 | 0.991 | 1.17 | – | – | – | – | – | 0.93 | 0.999 | 0.95 | 0.959 | 0.859 |
| LK-2 | 0.243 | 0.295 | 0.27 | 0.299 | 0.335 | 0.234 | 0.206 | 0.218 | 0.276 | 0.204 | 0.88 | 0.834 | 0.866 | 0.911 | 0.903 | 0.173 | 0.177 | 0.205 | 0.176 | 0.184 |
| LOU-NH91 | 0.554 | 0.538 | 0.558 | 0.531 | 0.557 | 0.735 | 0.733 | 0.797 | 0.741 | 0.732 | 0.69 | 0.78 | 0.722 | 0.635 | 0.735 | 0.331 | 0.368 | 0.297 | 0.354 | 0.328 |
| NCI-H358 | 0.205 | 0.159 | 0.141 | 0.193 | 0.169 | 0.639 | 0.543 | 0.566 | 0.66 | 0.7 | – | – | – | – | – | 0.526 | 0.388 | 0.283 | 0.26 | 0.242 |
| NCI-H522 | 0.977 | 0.976 | 0.858 | 1.01 | 0.905 | – | – | – | – | – | – | – | – | – | – | 0.958 | 1 | 1.1 | 1.22 | 1 |
| NCI-H650 | 0.475 | 0.468 | 0.462 | – | 0.433 | 0.949 | 0.75 | 0.631 | 0.77 | 0.773 | – | – | – | – | – | 0.783 | 0.766 | 0.79 | – | 0.799 |
| NCI-H661 | 0.898 | 0.945 | 0.868 | 0.974 | 0.79 | – | 0.965 | 0.938 | 0.988 | 1.07 | – | – | – | – | – | 0.905 | 0.907 | 0.963 | 0.882 | 0.914 |
| NCI-H1299 | – | – | – | – | – | 0.961 | 0.993 | 0.923 | 0.941 | 0.948 | 1.02 | 1.08 | 1.02 | 1.05 | 1.03 | – | – | – | – | – |
| NCI-H1395 | 0.416 | 0.376 | 0.4 | 0.41 | 0.381 | – | – | – | – | – | 1.14 | 1.05 | 1.49 | 1.08 | 1.16 | 0.757 | 0.655 | 0.744 | 0.763 | 0.714 |
| NCI-H1563 | 0.455 | 0.472 | 0.446 | 0.487 | 0.465 | 0.91 | 0.92 | 0.87 | 0.889 | 0.892 | – | – | – | – | – | 0.538 | 0.563 | 0.558 | 0.508 | 0.536 |
| NCI-H1623 | 0.475 | 0.504 | 0.534 | 0.535 | 0.474 | – | – | – | – | – | – | – | – | – | – | 0.435 | 0.503 | 0.502 | 0.559 | 0.439 |
| NCI-H1703 | – | – | – | – | – | 0.84 | 0.828 | 0.898 | 0.688 | 0.777 | 1.05 | 1.29 | 1.49 | 1.11 | 0.897 | – | – | – | – | – |
| NCI-H1793 | 0.409 | 0.423 | 0.364 | – | 0.414 | – | – | – | – | – | 0.549 | 0.446 | 0.444 | 0.456 | 0.608 | 0.159 | 0.215 | 0.255 | – | 0.184 |
| NCI-H2342 | 0.308 | 0.381 | 0.32 | 0.374 | 0.299 | – | – | – | – | – | – | – | – | – | – | 0.818 | 0.617 | 0.803 | 0.631 | 0.7 |
| SW 900 | 0.534 | 0.764 | 0.478 | 0.578 | 0.552 | – | – | – | – | – | – | – | – | – | – | 0.175 | 0.178 | 0.181 | 0.179 | 0.162 |
